Experimental findings from patent US10463664B2, “Inhibitors of HSV nucleotidyl transferases and uses therefor” (Saint Louis University, priority 2013, dated 2019) are described below.

Series [1] relates to HSV-2. As to the kind of experiment: Anti-HSV-2 replication assay in Vero cells, titer by plaque assay. In kind it is cell-based, herpes simplex virus 2. The note with it: for Control of HSV-2 replication after high moi infection: moi 5, 5 μM, 24 h. The method, boiled down: (§1)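 Well lysates titered by plaque assay on Vero cells versus DMSO controls; EC50 by non-linear fit from serial dilutions starting at 50 μM.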

For series [2], the system named is HSV-2. Briefly: HSV-2 replication inhibition in primary human foreskin fibroblasts. Type of series: cell-based, herpes simplex virus 2. The note with it: HFF cells; for Replication inhibition HSV-2 5 μM / Replication inhibition HSV-2 50 μM: relative to DMSO-treated control. The method in brief:
(§2)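 Confluent primary HFF monolayers infected at MOI 0.1 with compound present (50 μM and 5 μM final), 1 h at 37 °C; inoculum removed, compound re-added and incubated a further 23 h. Whole-well virus yield at 24 h post-infection titrated by plaque assay on Vero cells; DMSO diluent controls included. EC50 from serial dilutions starting at 50 μM, non-linear curve fit.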

Another series deals with T1, human RNaseH1 (Homo sapiens, UniProt O60930).
T1 construct: hexahistidine; made in house; host or cells: E. coli
T1 sequence (O60930 1-286): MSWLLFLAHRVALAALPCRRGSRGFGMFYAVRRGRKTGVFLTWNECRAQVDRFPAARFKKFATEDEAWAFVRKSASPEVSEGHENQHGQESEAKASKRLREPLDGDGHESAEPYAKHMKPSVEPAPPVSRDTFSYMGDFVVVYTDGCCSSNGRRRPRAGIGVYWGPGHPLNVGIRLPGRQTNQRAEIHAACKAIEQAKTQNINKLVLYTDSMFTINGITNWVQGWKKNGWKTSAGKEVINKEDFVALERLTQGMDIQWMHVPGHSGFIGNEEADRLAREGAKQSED
As to the kind of experiment: Biochemical inhibition of human RNaseH1 (oligonucleotide-directed RNA cleavage assay). The note with it: compounds at 60, 20 or 10 μM. The method in brief: (§3)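 A DNA oligonucleotide was annealed to internally ^32P-labeled RNA, and the heteroduplex was incubated with enzyme alongside compounds at 60, 20 or 10 μM. Cleavage products were resolved by electrophoresis and detected by autoradiography, then quantified against DMSO vehicle reactions.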

In the next series the test system is Vero cells. As to the kind of experiment: MTT mitochondrial toxicity assay in Vero cells. The settings on record: 24 h; read-out: Vero cell toxicity MTT CC50. Type of series: cell-based. Background: Tetrazolium dyes change colour on reduction, which living cells bring about.
The test system of another series is HCMV strain AD169. Briefly: HCMV plaque reduction assay in HFFs. In kind it is cell-based, human cytomegalovirus. The settings on record: 10 days, read-out: EC50 against HCMV, plaque reduction assay. The protocol: (§4) HCMV plaque reduction EC50 and toxicity assays. Low passage primary HFFs were infected with HCMV strain AD169 in the presence of serial dilutions of the compounds from 0.032 to 100 μM. Ten days later the monolayers were stained with 1% neutral red solution in PBS. After rinsing, plaques were counted using a stereomicroscope and the EC50 was interpolated from the data. Cytotoxicity was measured using a plate-based assay in which compounds were added to HFFs at 0.032 to 100 μM. At the end of the incubation period, plates were stained for 1 h with a neutral red solution in PBS. The stain was then removed, the plates rinsed in PBS and dried, and dye internalized by viable cells was determined at OD550. CC50 values were interpolated from the data.
(§5) Compounds #41, 46, 49, 55, 56, and 59 and the FDA-approved, anti-HCMV drug ganciclovir were subsequently evaluated with plaque reduction and toxicity assays in HFFs. HFFs were infected with HCMV in the presence of serial dilutions of the compounds. After 10 days the cultures were stained with neutral red and plaques were counted. Compound cytotoxicity for uninfected cells was determined in the same manner except that neutral red uptake by viable cells was measured by optical density. […] The TI values for the five NTS inhibitors of HCMV ranged from 5 for compound #46 to 17 for #55 and 59. Therefore, NTS inhibitors can suppress HCMV replication in addition to inhibiting the HSVs.

In the next series the test system is HFFs. As to the kind of experiment: Neutral red cytotoxicity assay in HFFs (10 day, with plaque reduction assay). In kind it is cell-based, human. The note with it: 10 day assay. The protocol:
as §4, §5

The subject of series [3] is HSV-1. As to the kind of experiment: Anti-HSV-1 replication assay in Vero cells, titer by plaque assay. In kind it is cell-based, herpes simplex virus 1. The note with it: for Control of HSV-1 replication after high moi infection: moi 5, 5 μM, 24 h. The method, boiled down:
as §1

Series [4] deals with HSV-1. As to the kind of experiment: HSV-1 replication inhibition in primary human foreskin fibroblasts. In kind it is cell-based, herpes simplex virus 1. The settings on record: HFF cells; for Replication inhibition HSV-1 5 μM / Replication inhibition HSV-1 50 μM: relative to DMSO-treated control. The method, boiled down:
as §2

In a further series the target is T2, HBV RNaseH (Hepatitis B virus genotype A2 subtype adw2, UniProt P03159).
T2 construct: One of the inventors recently produced active recombinant HBV RNase H; hexahistidine; made in house; host or cells: E. coli
T2 sequence (P03159 693-845): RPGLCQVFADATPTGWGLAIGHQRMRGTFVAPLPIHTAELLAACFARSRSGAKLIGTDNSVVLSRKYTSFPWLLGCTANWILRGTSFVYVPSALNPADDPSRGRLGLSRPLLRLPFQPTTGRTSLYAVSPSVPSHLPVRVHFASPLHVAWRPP
Briefly: Biochemical inhibition of HBV RNaseH (oligonucleotide-directed RNA cleavage assay). The note with it: compounds at 60, 20 or 10 μM. The method, boiled down: as §3

Where [5] appears, read: moi 0.1, 24 h, relative to DMSO.
Setting [6] is: 5 μM, moi 0.1, 24 h, relative to DMSO.

The structures appear in SMILES notation. “And” between values parts separate entries of the source, which are not always exact repeats. Identical values can stand only once.

What is called EC50 is the concentration giving half of the maximal effect. What is called CC50 is the concentration that lowers cell viability or growth by half.

As to `CC(C)c1ccc(O)c(=O)c(O)c1` [Compound 46, Beta-thujaplicinol], the “Anti-HSV-2 Log10 suppression 50 μM” value in the series on HSV-2 [1] (setting [5]) came to 5.12 log10. In addition, the EC50 in the series with HSV-2 [1] (moi 0.1, 24 h) is 1690 nM; in the series on HSV-2 [2], 380 nM; in the series on HCMV strain AD169 it was 1300 nM; in the series with HSV-1 [3] (moi 0.1, 24 h) it was 1940 nM; in the series on HSV-1 [4] it was 970 nM. For the same molecule, the “Control of HSV-2 replication after high moi infection” value with HSV-2 [1] is given as “efficiently controlled virus replication”. In the series with HSV-2 [2], the “Replication inhibition HSV-2 5 μM” value was found to be 5.17 log10. Moreover, the “Replication inhibition HSV-2 50 μM” value in the series on HSV-2 [2] amounted to 5.83 log10. The “Anti-Human RNaseH1” value on human RNaseH1 is “+ (inhibition at 60 μM)”. Besides, the figures for the CC50 with Vero cells and with HFFs were over 100 µM and 6.7 µM, respectively. Also, the “Anti-HSV-1 Log10 suppression 50 μM” value in the series with HSV-1 [3] (setting [5]) amounted to 4.81 log10. For the same molecule, in the series with HSV-1 [3], the “Control of HSV-1 replication after high moi infection” value is “efficiently controlled virus replication”. The “Replication inhibition HSV-1 5 μM” value with HSV-1 [4] is given as 5.83 log10. In the series on HSV-1 [4], the “Replication inhibition HSV-1 50 μM” value is recorded as 6.39 log10. Further, the “Anti-HBV RNaseH” value at HBV RNaseH is “+++ (inhibition at 10 μM)”.
`CC(C)=CCc1ccc(O)c(=O)cc1C(C)C` [Compound 49, Nootkatin]: the “Anti-HSV-2 Log10 suppression 50 μM” value in the series with HSV-2 [1] (setting [5]) is listed as 5.05 log10. The EC50 was 190 nM and 220 nM in the series with HSV-2 [1] (moi 0.1, 24 h); 1230 nM in the series with HSV-2 [2]; 450 nM with HCMV strain AD169; 240 nM in the series on HSV-1 [3] (moi 0.1, 24 h); 740 nM with HSV-1 [4]. For the same molecule, the “Replication inhibition HSV-2 5 μM” value in the series with HSV-2 [2] came to 5.47 log10. In addition, the “Replication inhibition HSV-2 50 μM” value in the series on HSV-2 [2] was determined as 5.98 log10. Moreover, at human RNaseH1, the “Anti-Human RNaseH1” value is listed as “− (no inhibition at 60 μM)”. Besides, the CC50 with Vero cells was over 100 µM; in the series with HFFs it was 6.7 µM. For the same molecule, in the series on HSV-1 [3] (setting [5]), the “Anti-HSV-1 Log10 suppression 50 μM” value worked out at 4.72 log10. Also, the “Replication inhibition HSV-1 5 μM” value in the series on HSV-1 [4] is 5.79 log10. Besides, the “Replication inhibition HSV-1 50 μM” value with HSV-1 [4] was determined as 6.27 log10. Besides, the “Anti-HBV RNaseH” value at HBV RNaseH is given as “− (no inhibition at 60 μM)”.
Regarding `CC(=O)NC(CCc1ccc(Cl)c(Cl)c1)c1cccc(O)c(=O)c1` (centres unmarked) [Compound 55], the “Anti-HSV-2 Log10 suppression 50 μM” value in the series on HSV-2 [1] (setting [5]) amounted to 5.06 log10. Moreover, the EC50 in the series with HSV-2 [1] (moi 0.1, 24 h) was found to be 1070 nM; in the series with HSV-2 [2], 1670 nM; in the series with HCMV strain AD169 it was 470 nM; with HSV-1 [3] (moi 0.1, 24 h), 420 nM; in the series on HSV-1 [4], 2810 nM. Besides, the “Control of HSV-2 replication after high moi infection” value in the series with HSV-2 [1] was “efficiently controlled virus replication”. Moreover, the “Replication inhibition HSV-2 5 μM” value in the series on HSV-2 [2] stood at 3.94 log10. Also, the “Replication inhibition HSV-2 50 μM” value with HSV-2 [2] amounted to 6.55 log10. Moreover, the “Anti-Human RNaseH1” value at human RNaseH1 is “+ (inhibition at 60 μM)”. Also, the CC50 in the series on Vero cells was over 100 µM; in the series on HFFs, 8 µM. The “Anti-HSV-1 Log10 suppression 50 μM” value with HSV-1 [3] (setting [5]) amounted to 5.04 log10. In the series on HSV-1 [3], the “Control of HSV-1 replication after high moi infection” value is recorded as “efficiently controlled virus replication”. Besides, in the series on HSV-1 [4], the “Replication inhibition HSV-1 5 μM” value is 4.99 log10. The “Replication inhibition HSV-1 50 μM” value in the series with HSV-1 [4] is on record as 6.17 log10. On HBV RNaseH, the “Anti-HBV RNaseH” value was “+ (inhibition at 60 μM)”.
Regarding `C=C(C)C1CCc2c(c(C)cc(O)c(=O)c2O)C1` (centres unmarked) [Compound 56, Manicol], in the series on HSV-2 [1] (5 μM), the “HSV-2 replication inhibition, fold” value is recorded as 891,000 fold. Moreover, the “Anti-HSV-2 Log10 suppression 5 μM” value with HSV-2 [1] (setting [6]) came to 5.95 log10. The “Anti-HSV-2 Log10 suppression 50 μM” value in the series on HSV-2 [1] (setting [5]) was found to be 5.79 log10. In addition, the EC50 in the series with HSV-2 [1] (moi 0.1, 24 h) was found to be 580 nM; with HSV-2 [2] it was 550 nM; in the series on HCMV strain AD169, 2660 nM; in the series on HSV-1 [3] (moi 0.1, 24 h), 350 nM; with HSV-1 [4] it was 240 nM. In the series on HSV-2 [2], the “Replication inhibition HSV-2 5 μM” value is reported as 5.93 log10. Also, in the series on HSV-2 [2], the “Replication inhibition HSV-2 50 μM” value amounted to 6.80 log10. Besides, the “Anti-Human RNaseH1” value on human RNaseH1 is given as “− (no inhibition at 60 μM)”. Moreover, the CC50 in the series with Vero cells was over 100 µM; in the series on HFFs, 6.7 µM. For the same molecule, the “HSV-1 replication inhibition, fold” value in the series on HSV-1 [3] (5 μM) is listed as 138,000 fold. In addition, the “Anti-HSV-1 Log10 suppression 5 μM” value in the series with HSV-1 [3] (setting [6]) is listed as 5.14 log10. Also, the “Anti-HSV-1 Log10 suppression 50 μM” value in the series with HSV-1 [3] (setting [5]) is given as 5.82 log10. Besides, the “Replication inhibition HSV-1 5 μM” value in the series with HSV-1 [4] amounted to 5.72 log10. For the same molecule, the “Replication inhibition HSV-1 50 μM” value in the series on HSV-1 [4] was 6.39 log10. Besides, the “Anti-HBV RNaseH” value on HBV RNaseH is “+++ (inhibition at 10 μM)”.
